The source of these data is patent US10556914B2, “Substituted isoxazolopyridazinones and isothiazolopyridazinones and methods of use” (AbbVie Inc., priority 2015, dated 2020).

The assay deals with GABA-B receptor (Rattus norvegicus (Rat), UniProt O88871+Q9Z0U4). The assay can be described thus: [35S]GTPgS Binding Assay (rat brain cortex membranes, native receptor). Type of assay: biochemical. The note with it: rat cortical membranes; in the presence of 1 μM GABA (EC25); basal binding 0%, maximal binding (1 mM GABA) 100%. On the technique in general: GTPγS resists hydrolysis and so accumulates on activated G proteins.
Chain of GABA-B receptor (Q9Z0U4 17-960): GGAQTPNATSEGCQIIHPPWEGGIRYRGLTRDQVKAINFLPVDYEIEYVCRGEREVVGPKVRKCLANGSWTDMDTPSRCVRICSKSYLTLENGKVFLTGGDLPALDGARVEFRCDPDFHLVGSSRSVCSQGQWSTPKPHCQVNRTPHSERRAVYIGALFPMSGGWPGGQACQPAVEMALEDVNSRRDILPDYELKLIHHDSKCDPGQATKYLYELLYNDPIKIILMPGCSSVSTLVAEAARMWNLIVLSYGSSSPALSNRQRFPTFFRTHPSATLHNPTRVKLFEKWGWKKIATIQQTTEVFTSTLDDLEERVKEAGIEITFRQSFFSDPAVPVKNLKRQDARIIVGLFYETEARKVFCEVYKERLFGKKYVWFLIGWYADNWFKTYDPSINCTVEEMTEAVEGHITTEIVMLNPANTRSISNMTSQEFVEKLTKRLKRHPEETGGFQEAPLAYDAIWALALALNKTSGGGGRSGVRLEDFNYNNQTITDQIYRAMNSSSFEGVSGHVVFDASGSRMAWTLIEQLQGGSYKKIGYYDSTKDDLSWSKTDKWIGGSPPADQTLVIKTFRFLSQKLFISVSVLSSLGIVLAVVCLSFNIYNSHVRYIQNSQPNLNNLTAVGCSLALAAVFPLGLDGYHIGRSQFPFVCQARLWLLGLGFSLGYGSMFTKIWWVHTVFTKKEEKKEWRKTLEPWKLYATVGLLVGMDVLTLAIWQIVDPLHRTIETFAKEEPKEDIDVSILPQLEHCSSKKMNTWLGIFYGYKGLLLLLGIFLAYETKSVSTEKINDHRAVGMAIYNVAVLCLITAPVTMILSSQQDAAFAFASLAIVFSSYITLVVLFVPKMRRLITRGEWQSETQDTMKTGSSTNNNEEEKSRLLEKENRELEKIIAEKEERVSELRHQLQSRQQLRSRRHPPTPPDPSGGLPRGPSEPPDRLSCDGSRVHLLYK
Chain of GABA-B receptor (O88871 41-940): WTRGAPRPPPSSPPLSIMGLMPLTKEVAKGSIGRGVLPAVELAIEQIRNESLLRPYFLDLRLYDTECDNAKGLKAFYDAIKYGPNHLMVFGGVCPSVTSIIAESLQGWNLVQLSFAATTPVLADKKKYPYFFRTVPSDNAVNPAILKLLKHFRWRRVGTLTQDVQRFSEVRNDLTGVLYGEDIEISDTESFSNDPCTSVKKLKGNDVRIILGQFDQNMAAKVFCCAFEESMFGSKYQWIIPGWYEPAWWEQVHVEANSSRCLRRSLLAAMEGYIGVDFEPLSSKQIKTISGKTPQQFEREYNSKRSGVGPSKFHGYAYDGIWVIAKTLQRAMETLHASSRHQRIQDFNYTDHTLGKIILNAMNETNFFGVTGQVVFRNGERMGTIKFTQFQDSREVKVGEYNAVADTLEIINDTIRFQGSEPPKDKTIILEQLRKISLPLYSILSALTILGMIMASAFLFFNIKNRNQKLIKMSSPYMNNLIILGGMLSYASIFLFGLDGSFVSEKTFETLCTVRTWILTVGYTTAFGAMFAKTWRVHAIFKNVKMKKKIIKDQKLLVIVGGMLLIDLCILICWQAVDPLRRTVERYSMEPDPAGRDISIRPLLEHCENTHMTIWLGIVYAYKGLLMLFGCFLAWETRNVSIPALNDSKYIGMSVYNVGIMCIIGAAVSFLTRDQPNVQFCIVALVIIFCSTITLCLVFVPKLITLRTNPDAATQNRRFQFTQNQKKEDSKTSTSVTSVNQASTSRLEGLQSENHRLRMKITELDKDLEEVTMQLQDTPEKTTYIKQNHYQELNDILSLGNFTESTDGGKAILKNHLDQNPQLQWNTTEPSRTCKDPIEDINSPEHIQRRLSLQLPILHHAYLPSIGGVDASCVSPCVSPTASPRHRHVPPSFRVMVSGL
A word on the EC50: it is the concentration giving half of the maximal effect. Take `Cc1noc2c(-c3cccc(N)c3)nn(C(C)c3ccc(Cl)cc3)c(=O)c12` (centres unmarked) [Example 126, 7-(3-aminophenyl)-5-[1-(4-chlorophenyl)ethyl]-3-methyl[1,2]oxazolo[4,5-d]pyridazin-4(5H)-one]: the EC50 is 501 nM. As for `COc1ccc(-c2nn(Cc3ccc(C(F)(F)F)cc3)c(=O)c3c(C)noc23)c(OC)c1` [Example 127, 7-(2,4-dimethoxyphenyl)-3-methyl-5-[4-(trifluoromethyl)benzyl][1,2]oxazolo[4,5-d]pyridazin-4(5H)-one], the EC50 was found to be 1560 nM. Turning to `COc1ccc(OC)c(-c2nn([C@H](C)c3ccc(Cl)cc3)c(=O)c3c(C4CC4)noc23)c1` [Example 128, 5-[(1R)-1-(4-chlorophenyl)ethyl]-3-cyclopropyl-7-(2,5-dimethoxyphenyl)-[1,2]oxazolo[4,5-d]pyridazin-4(5H)-one], the EC50 was more than 10000 nM. For the compound `CCc1noc2c(-c3cccc(NC(C)=O)c3)nn(Cc3ccc(Cl)cc3)c(=O)c12` [Example 129, N-{3-[5-(4-chlorobenzyl)-3-ethyl-4-oxo-4,5-dihydro[1,2]oxazolo[4,5-d]pyridazin-7-yl]phenyl}acetamide], the EC50 was 2110 nM. The figure for `CCNC(=O)c1ccc(OC)c(-c2nn(C(C)c3ccc(Cl)cc3)c(=O)c3c(C)noc23)c1` (centres unmarked) [Example 131] is 453 nM.
